What is called AC50 is the concentration at which the activity in the assay is half-maximal. Low values mean greater potency, high ones weaker potency.

The structures appear in SMILES notation. Where only a bound is given, the exact number is not on record here.

From ChEMBL document CHEMBL5291721, “A preclinical secondary pharmacology resource illuminates target-adverse drug reaction associations of marketed drugs” (Nat Commun, 2023) come the findings set out here.

Test [1] addresses T1, Alpha-2A adrenergic receptor (Homo sapiens, UniProt P08913).
T1 sequence (P08913 whole entry): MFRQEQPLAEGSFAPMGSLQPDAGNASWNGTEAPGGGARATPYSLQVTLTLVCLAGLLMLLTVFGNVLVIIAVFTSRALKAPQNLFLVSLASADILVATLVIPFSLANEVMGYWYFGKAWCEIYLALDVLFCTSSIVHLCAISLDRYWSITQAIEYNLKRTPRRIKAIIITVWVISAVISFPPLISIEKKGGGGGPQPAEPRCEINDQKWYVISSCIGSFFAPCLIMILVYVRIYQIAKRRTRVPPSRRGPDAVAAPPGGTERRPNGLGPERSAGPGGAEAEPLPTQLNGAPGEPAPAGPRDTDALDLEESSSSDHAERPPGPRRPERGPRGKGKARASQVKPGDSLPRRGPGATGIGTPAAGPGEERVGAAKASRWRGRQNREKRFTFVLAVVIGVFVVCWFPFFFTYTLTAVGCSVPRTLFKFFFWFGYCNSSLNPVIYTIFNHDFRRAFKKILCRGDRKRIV
It is filed as functional, cell-based.

Test [2] deals with Motilin receptor (Homo sapiens, UniProt O43193).
Test [3] deals with Histamine H3 receptor (Homo sapiens, UniProt Q9Y5N1).
Test [4] concerns the target T2, Gamma-aminobutyric acid receptor subunit alpha-1 (Rattus norvegicus, UniProt P62813). The format is functional.
Test [5] concerns the target Adenosine receptor A2a (Homo sapiens, UniProt P29274).
Test [6] addresses Sodium-dependent noradrenaline transporter (Homo sapiens, UniProt P23975).
Test [7] has as its target T3, Neuropeptide Y receptor type 1 (Homo sapiens, UniProt P25929).
T3 sequence (P25929 whole entry): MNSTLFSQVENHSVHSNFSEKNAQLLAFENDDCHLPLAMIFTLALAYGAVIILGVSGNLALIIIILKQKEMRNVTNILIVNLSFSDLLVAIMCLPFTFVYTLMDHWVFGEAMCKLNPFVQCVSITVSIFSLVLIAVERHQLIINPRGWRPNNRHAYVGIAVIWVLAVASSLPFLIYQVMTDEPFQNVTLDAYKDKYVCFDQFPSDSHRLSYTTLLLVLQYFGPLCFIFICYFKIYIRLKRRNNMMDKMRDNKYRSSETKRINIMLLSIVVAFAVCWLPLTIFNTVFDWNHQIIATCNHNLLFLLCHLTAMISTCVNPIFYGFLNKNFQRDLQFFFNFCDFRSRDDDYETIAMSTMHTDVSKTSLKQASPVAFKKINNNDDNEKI

Test [8] addresses Cannabinoid receptor 1 (Homo sapiens, UniProt P21554). It is filed as functional, cell-based.
In test [9] the target is cGMP-inhibited 3',5'-cyclic phosphodiesterase 3A (Homo sapiens, UniProt Q14432). It is filed as functional.
Test [10] deals with 5-hydroxytryptamine receptor 2A (Homo sapiens, UniProt P28223). The format is functional, cell-based.
For test [11], the target named is T2, Gamma-aminobutyric acid receptor subunit alpha-1.
Test [12] has as its target Glutamate receptor ionotropic, NMDA 1 (Rattus norvegicus, UniProt P35439).
Test [13] addresses T4, Muscarinic acetylcholine receptor M1 (Homo sapiens, UniProt P11229).
T4 sequence (P11229 whole entry): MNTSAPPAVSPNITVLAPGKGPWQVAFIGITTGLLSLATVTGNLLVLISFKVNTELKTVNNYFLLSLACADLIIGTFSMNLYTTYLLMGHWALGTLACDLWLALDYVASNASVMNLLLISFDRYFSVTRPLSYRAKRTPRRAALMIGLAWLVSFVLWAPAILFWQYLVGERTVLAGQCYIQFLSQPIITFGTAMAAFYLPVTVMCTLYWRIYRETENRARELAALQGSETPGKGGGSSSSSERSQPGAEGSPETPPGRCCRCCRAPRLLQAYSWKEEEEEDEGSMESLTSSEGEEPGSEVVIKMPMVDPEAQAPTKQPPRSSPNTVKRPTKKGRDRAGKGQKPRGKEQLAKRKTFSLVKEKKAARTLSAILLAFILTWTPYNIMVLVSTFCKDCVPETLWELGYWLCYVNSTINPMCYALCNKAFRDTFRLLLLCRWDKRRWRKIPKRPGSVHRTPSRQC
The format is functional.

For test [14], the target named is Sodium-dependent dopamine transporter (Homo sapiens, UniProt Q01959).
Test [15] addresses Histamine H2 receptor (Homo sapiens, UniProt P25021). The format is functional, cell-based.
In test [16] the target is Growth hormone secretagogue receptor type 1 (Homo sapiens, UniProt Q92847).
Test [17] deals with T5, 5-hydroxytryptamine receptor 2C (Homo sapiens, UniProt P28335).
T5 sequence (P28335 whole entry): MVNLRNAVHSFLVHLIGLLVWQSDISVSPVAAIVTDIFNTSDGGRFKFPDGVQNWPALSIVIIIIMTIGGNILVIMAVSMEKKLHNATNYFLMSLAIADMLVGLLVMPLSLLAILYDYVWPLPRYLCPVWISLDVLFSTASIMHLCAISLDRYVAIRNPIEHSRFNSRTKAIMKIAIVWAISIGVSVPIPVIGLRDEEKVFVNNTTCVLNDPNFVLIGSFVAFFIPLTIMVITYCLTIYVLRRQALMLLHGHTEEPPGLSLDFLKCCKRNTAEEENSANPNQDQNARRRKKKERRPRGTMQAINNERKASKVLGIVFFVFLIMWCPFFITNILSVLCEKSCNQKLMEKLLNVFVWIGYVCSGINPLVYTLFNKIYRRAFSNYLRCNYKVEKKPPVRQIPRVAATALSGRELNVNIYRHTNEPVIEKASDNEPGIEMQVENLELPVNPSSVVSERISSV

The target in test [18] is Beta-1 adrenergic receptor (Homo sapiens, UniProt P08588). It is filed as functional.
The target of test [19] is Beta-2 adrenergic receptor (Homo sapiens, UniProt P07550).
Test [20] addresses 5-hydroxytryptamine receptor 2B (Homo sapiens, UniProt P41595). The format is functional, cell-based.
Further: assay procedure not described here.

Sodium-dependent dopamine transporter, sequence (Q01959 whole entry): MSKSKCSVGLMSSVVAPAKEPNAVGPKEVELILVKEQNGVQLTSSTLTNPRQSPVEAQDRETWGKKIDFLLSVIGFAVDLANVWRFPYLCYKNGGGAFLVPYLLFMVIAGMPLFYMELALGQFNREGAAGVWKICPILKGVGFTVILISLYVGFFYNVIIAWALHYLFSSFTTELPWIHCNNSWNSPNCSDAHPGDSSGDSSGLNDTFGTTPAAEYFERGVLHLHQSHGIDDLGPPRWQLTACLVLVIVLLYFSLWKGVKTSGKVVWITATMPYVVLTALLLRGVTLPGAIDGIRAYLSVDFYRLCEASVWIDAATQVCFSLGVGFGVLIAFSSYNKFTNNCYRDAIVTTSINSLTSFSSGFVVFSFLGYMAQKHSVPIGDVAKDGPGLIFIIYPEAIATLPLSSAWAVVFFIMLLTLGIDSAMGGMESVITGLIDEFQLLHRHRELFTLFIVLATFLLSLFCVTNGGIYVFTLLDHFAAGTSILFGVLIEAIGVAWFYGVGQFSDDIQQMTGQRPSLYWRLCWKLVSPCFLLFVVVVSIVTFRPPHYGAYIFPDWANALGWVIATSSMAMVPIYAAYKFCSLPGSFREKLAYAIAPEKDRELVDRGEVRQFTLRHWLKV
T2 sequence (P62813 whole entry): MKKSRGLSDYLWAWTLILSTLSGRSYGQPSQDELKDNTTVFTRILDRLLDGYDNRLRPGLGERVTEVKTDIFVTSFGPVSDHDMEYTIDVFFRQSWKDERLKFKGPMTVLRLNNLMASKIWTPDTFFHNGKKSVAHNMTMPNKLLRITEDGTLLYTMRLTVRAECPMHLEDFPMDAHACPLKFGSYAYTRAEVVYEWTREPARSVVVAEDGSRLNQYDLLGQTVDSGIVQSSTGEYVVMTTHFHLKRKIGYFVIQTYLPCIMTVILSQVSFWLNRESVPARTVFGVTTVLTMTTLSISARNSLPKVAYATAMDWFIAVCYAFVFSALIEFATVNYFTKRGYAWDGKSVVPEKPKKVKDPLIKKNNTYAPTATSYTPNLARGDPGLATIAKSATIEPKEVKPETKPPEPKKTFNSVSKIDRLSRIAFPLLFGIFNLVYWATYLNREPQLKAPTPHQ
Sodium-dependent noradrenaline transporter, sequence (P23975 whole entry): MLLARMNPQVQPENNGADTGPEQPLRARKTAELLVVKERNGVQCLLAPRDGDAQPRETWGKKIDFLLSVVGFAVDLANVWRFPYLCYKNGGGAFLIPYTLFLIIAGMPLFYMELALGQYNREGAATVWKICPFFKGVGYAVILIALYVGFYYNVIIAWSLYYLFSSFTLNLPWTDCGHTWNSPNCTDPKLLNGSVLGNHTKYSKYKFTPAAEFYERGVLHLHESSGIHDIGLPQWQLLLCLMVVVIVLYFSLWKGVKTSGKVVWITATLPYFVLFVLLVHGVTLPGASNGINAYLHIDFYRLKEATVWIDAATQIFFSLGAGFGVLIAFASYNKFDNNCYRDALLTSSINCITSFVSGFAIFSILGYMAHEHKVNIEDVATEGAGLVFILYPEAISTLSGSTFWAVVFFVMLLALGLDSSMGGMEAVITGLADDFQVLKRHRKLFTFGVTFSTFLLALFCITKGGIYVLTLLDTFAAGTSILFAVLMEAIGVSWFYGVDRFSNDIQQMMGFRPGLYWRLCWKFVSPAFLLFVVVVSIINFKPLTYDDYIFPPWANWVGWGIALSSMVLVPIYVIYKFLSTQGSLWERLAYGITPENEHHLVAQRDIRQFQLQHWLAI
Beta-2 adrenergic receptor, sequence (P07550 whole entry): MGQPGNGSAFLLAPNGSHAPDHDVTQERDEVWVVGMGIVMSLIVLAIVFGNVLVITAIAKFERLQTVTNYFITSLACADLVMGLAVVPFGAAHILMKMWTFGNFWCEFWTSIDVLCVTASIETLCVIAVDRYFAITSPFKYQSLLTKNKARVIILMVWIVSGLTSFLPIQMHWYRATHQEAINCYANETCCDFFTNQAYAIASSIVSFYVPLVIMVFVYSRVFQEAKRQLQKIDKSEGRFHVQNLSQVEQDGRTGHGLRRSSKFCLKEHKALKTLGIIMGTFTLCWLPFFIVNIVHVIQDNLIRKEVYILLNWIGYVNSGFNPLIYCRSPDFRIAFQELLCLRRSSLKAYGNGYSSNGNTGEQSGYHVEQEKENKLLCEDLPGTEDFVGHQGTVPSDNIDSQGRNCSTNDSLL
Motilin receptor, sequence (O43193 whole entry): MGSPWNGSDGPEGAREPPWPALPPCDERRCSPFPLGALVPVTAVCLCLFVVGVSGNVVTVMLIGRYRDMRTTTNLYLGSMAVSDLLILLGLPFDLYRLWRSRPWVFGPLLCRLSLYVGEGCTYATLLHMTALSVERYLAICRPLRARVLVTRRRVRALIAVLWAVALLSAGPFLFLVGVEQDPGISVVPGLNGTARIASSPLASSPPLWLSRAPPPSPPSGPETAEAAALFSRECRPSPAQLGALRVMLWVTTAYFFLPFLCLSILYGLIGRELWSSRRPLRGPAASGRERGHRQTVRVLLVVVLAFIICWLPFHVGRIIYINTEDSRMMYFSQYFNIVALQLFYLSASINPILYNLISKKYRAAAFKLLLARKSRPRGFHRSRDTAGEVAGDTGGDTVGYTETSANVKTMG
Histamine H3 receptor, sequence (Q9Y5N1 whole entry): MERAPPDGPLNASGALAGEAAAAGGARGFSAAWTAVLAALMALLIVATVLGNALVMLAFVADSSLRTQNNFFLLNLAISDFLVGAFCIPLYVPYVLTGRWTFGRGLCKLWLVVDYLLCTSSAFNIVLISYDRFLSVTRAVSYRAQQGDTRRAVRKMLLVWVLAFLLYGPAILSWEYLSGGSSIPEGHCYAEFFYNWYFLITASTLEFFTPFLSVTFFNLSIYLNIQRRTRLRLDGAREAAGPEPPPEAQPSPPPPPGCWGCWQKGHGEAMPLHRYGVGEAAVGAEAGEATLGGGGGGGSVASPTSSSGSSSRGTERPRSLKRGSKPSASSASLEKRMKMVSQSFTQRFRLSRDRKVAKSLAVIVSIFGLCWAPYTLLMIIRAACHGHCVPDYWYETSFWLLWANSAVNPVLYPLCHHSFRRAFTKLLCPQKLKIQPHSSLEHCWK
Beta-1 adrenergic receptor, sequence (P08588 whole entry): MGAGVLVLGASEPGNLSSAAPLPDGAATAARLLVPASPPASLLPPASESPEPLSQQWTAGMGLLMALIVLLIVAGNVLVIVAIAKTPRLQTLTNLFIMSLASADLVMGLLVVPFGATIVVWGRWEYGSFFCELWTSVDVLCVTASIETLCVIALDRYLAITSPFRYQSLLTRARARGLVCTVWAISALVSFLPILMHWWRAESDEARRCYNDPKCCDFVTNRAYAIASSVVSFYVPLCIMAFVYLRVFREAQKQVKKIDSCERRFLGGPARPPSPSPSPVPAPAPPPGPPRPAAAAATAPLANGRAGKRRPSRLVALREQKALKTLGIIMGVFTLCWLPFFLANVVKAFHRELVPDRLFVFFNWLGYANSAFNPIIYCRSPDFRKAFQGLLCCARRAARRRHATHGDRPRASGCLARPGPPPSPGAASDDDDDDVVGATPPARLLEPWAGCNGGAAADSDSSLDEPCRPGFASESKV
Adenosine receptor A2a, sequence (P29274 whole entry): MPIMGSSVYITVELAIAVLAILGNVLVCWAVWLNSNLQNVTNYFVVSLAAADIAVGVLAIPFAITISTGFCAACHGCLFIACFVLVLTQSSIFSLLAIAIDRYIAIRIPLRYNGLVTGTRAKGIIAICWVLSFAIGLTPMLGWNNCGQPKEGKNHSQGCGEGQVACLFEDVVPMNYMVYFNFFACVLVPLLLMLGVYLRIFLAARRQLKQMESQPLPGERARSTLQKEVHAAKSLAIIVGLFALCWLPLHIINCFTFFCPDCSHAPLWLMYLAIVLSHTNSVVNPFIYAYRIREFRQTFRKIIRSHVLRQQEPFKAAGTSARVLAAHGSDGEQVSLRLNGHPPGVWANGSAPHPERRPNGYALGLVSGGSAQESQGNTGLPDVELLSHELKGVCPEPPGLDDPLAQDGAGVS
Histamine H2 receptor, sequence (P25021 whole entry): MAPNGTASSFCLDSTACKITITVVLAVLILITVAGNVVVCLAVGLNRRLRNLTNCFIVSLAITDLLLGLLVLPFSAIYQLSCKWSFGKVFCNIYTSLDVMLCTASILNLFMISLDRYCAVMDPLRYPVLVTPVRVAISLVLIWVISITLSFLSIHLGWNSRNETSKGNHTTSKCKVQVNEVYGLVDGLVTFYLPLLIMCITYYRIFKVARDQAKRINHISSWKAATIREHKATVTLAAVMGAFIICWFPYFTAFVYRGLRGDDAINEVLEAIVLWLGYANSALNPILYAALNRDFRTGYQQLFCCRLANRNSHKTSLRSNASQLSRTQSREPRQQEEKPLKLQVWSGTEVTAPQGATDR
Cannabinoid receptor 1, sequence (P21554 whole entry): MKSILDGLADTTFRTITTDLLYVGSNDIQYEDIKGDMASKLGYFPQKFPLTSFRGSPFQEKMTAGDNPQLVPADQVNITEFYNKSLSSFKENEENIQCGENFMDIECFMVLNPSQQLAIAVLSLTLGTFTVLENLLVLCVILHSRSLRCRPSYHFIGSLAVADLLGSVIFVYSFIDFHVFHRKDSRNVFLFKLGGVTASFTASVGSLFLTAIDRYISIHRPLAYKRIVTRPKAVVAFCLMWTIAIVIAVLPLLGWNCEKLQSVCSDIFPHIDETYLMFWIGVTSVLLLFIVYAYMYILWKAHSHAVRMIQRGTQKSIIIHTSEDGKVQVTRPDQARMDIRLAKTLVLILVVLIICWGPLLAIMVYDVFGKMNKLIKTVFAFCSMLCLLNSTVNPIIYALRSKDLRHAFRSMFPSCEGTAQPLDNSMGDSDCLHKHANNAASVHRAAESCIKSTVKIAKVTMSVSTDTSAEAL

Consider `CC/C=C\C/C=C\C/C=C\CCCCCCCC(=O)O` [LINOLENIC ACID], for which the AC50 in test [1], in [2], in test [3], in test [4], in [5] and in [6] was more than 30 µM in each case. Further, the AC50 in test [7], in [8], in [9], in [10], in test [11] and in [12] was more than 30 µM in each case. Further, the AC50 in [13], in test [14], in [15], in test [16], in test [17] and in [18] was more than 30 µM each time.

`C#CCN[C@@H]1CCc2ccccc21` [RASAGILINE]: the AC50 in test [1], in test [2], in test [3], in test [4], in test [5] and in [19] was more than 30 µM in each case. Also, the AC50 in test [6], in test [7], in test [9], in [10], in test [20] and in test [11] was more than 30 µM in each case. The AC50 in test [12], in [13], in test [14], in test [15], in [16] and in test [17] was more than 30 µM throughout. Also, in [18], the AC50 is more than 30 µM.

`C#CCN(C)[C@H](C)Cc1ccccc1` [SELEGILINE]: the AC50 in test [1], in test [2], in test [3], in test [4], in test [5] and in [19] was more than 10 µM each time. Further, the AC50 is more than 10 µM in [6]; more than 10 µM in test [7]; more than 30 µM in [8]; more than 30 µM in test [9]; more than 10 µM in test [20]; more than 10 µM in test [11]. For the same compound, the AC50 is more than 10 µM in test [12]; more than 10 µM in [14]; more than 10 µM in [15]; more than 10 µM in [16]; more than 30 µM in test [17]; more than 10 µM in test [18].

Consider `C[C@]12CCC(=O)C=C1CC[C@@H]1[C@@H]2CC[C@@]2(C)[C@H]1CC[C@]2(C)O` [METHYLTESTOSTERONE], for which the AC50 in [1], in test [2], in test [3], in [4], in test [5] and in [19] was more than 30 µM in each case. Also, the AC50 in [6] is more than 30 µM; in [7], more than 30 µM; in test [8] it was more than 30 µM; in [9] it was more than 30 µM; in test [20], 22 µM; in test [11], more than 30 µM. The AC50 in test [12], in test [14], in test [15], in test [16], in test [17] and in test [18] was more than 30 µM throughout.

For the compound `CC(C)(Oc1ccc(C2CC2(Cl)Cl)cc1)C(=O)O` (stereo not drawn) [CIPROFIBRATE], the AC50 in test [1], in test [2], in [3], in [4], in test [5] and in test [19] was more than 30 µM each time. Further, the AC50 in test [6], in test [7], in [8], in test [9], in [20] and in [11] was more than 30 µM in each case. Also, the AC50 in test [12], in test [14], in test [15], in test [16], in [17] and in test [18] was more than 30 µM each time.

Regarding `CN[C@@H](C)[C@H](O)c1ccccc1` [EPHEDRINE], the AC50 in test [1] was more than 10 µM; in test [2], more than 10 µM; in test [3], more than 10 µM; in test [4], more than 10 µM; in test [5], more than 30 µM; in test [19] it was more than 10 µM. Moreover, the AC50 in test [6] was more than 10 µM; in test [7], more than 30 µM; in test [8], more than 30 µM; in test [9], more than 30 µM; in test [20] it was more than 10 µM; in test [11], more than 10 µM. Besides, the AC50 is more than 10 µM in test [12]; more than 10 µM in [13]; more than 10 µM in test [14]; more than 10 µM in test [15]; more than 30 µM in test [16]; more than 30 µM in test [17]. The AC50 in [18] was more than 10 µM.

In the case of `CN1C(=O)COc2c(C(=O)NC3CN4CCC3CC4)cc(Cl)cc21` (stereo not drawn) [AZASETRON], the AC50 in test [1], in test [2], in test [3], in test [4], in [5] and in [19] was more than 30 µM each time. Further, the AC50 in test [6] is more than 30 µM; in [7], more than 30 µM; in [8], more than 30 µM; in test [9], more than 10 µM; in test [20] it was more than 30 µM; in test [11], more than 30 µM. In addition, the AC50 in [12], in test [14], in test [15], in test [16], in [17] and in test [18] was more than 30 µM in each case.
